Series [1] is described as follows: Solubility test: maximum solubility in water. The series is classed as physicochemical. The conditions noted are these: thermodynamic from solid. As for the experimental part:
Three lots of mesylates and three lots of lactates, respectively, were subjected to preliminary tests for maximum solubility in water. At ambient temperature (25° C.), 0.2 g of sample was dissolved in 1 mL of water. To the solution was added 0.1 g of the sample each time until the sample could no longer be dissolved. The amount of sample dissolved was the maximum solubility.

The test system of another series is Staphylococcus aureus. Description: In-vitro antibacterial test, agar dilution MIC. It is filed as cell-based. Particulars: for MIC: Staphylococcus aureus, read-out: In-vitro MIC.
For a further series, the system named is Enterococcus faecalis. The series can be described thus: In-vitro antibacterial test, agar dilution MIC. The series is classed as cell-based. Particulars: read-out: In-vitro MIC. In general terms: Agar dilution tests growth on a series of plates holding different concentrations.
A further series relates to Streptococcus pneumoniae. Description: In-vitro antibacterial test, agar dilution MIC. The conditions noted are these: for MIC: Streptococcus pneumoniae, read-out: In-vitro MIC. It is filed as cell-based. As for the experimental part:
(§1) Test method: the agar dilution method was used for the minimum inhibitory concentration (MIC) determination. The antibacterial chemicals were mixed with given amounts of agar in various concentrations and the mixtures were made into solid plates. Each plate had the antibacterial concentration two times higher than the next plate. Bacteria species were then added to the surface of the plates, cultured, and observed for their growth.
(§2) Other bacteria included those isolated from sputum, throat swab or urine of patients with acute bacterial respiratory tract infection or urinary tract infection and identified by the hospitals.
(§3) (S)-6-fluoro-1-methyl-4-oxo-7-(1-piperazinyl)-1H,4H-[1,3]thiazeto[3,2-a]quino line-3-carboxylic acid lactate and other test samples, equivalent to 96 mg of ulifloxacin, were dissolved in sterilized distilled water to make up 50 mL of each solution.

Another series relates to Escherichia coli. Description: In-vitro antibacterial test, agar dilution MIC. The conditions noted are these: for MIC: Escherichia coli, read-out: In-vitro MIC. The series is classed as cell-based.
Another series has as its system Enterobacter cloacae. Description: In-vitro antibacterial test, agar dilution MIC. The series is classed as cell-based. Particulars: read-out: In-vitro MIC.
A further series deals with Klebsiella pneumoniae. Description: In-vitro antibacterial test, agar dilution MIC. It is filed as cell-based. The conditions noted are these: for MIC: Klebsiella pneumoniae.
The subject of a further series is Vibrio cholerae. The series can be described thus: In-vitro antibacterial test, agar dilution MIC. The series is classed as cell-based. Particulars: for MIC: Vibrio cholerae, read-out: In-vitro MIC; for In-vitro MIC: agar dilution.
The subject of the next series is Pseudomonas aeruginosa. The series can be described thus: In-vitro antibacterial test, agar dilution MIC. The series is classed as cell-based. Particulars: for MIC: Pseudomonas aeruginosa, read-out: In-vitro MIC.
Series [2] deals with Klebsiella pneumoniae, Pseudomonas aeruginosa, Staphylococcus aureus, Escherichia coli, Enterococcus faecalis, Streptococcus pneumoniae, Enterobacter cloacae …. The series can be described thus: In-vitro antibacterial tests, summary over the tested bacteria. It is filed as cell-based. Particulars: for antibacterial activity (in words): against the eight tested bacteria. As for the experimental part:
as §1, §2, §3

[3] abbreviates: maximum solubility in water, ambient temperature (25° C.), average of two tests, preliminary, read-out: Water Solubility.

≈ marks a conversion by molar mass, not a printed value. Where two headings read alike, the source gives them in different places.

One may read the solubility as how much of the substance goes into solution per volume. By MIC is commonly meant the least concentration at which growth counts as inhibited.

Excerpt for Vibrio cholerae: The test bacterial strains were the standard quality control test strains of Klebsiella pneumoniae strains (Strains No. CMCC 46114-8), Pseudomonas aeruginosa (Strains No. ATCC 27853), Escherichia coli (Strains No. ATCC25922), and Staphylococcus aureus cocci (Strains No. ATCC25925). Other bacteria included those isolated from sputum, throat swab or urine of patients with acute bacterial respiratory tract infection or urinary tract infection and identified by the hospitals.
HCl levofloxacin injection and NaCl ciprofloxacin lactate injection were diluted with sterilized distilled water to a concentration of 1920 μg/mL.

On to `CC(O)C(=O)O.CC1Sc2c(C(=O)O)c(=O)c3cc(F)c(N4CCNCC4)cc3n21` (racemic) [Ulifloxaci lactate (±), (±)-6-fluoro-1-methyl-4-oxo-7-(1-piperazinyl)-1H,4H-[1,3]thiazeto[3,2-a]quinoline-3-carboxylic acid lactate, reference compound], for which the solubility in series [1] (setting [3]) was 106 mg/mL. For the same molecule, the MIC was 0.25 µg/mL in the series with Staphylococcus aureus; 2 µg/mL with Enterococcus faecalis (agar dilution); 0.1 µg/mL in the series with Streptococcus pneumoniae; 0.125 µg/mL with Escherichia coli; 1.25 µg/mL in the series with Enterobacter cloacae.
`CC1Sc2c(C(=O)O)c(=O)c3cc(F)c(N4CCNCC4)cc3n21.CS(=O)(=O)O` (racemic) [Ulifloxaci mesylate (±), (±)-6-fluoro-1-methyl-4-oxo-7-(1-piperazinyl)-1H,4H-[1,3]thiazeto[3,2-a]quinoline-3-carboxylic acid mesylate, reference compound]: the solubility in [1] (25 °C, water) came to 340 mg/mL. In addition, the MIC in the series on Staphylococcus aureus (agar dilution) was determined as 0.5 µg/mL; in the series with Enterococcus faecalis, 1.5 µg/mL; in the series on Streptococcus pneumoniae, 0.088 µg/mL; with Escherichia coli, 0.063 µg/mL; in the series with Klebsiella pneumoniae, 0.2 µg/mL; with Enterobacter cloacae (agar dilution) it was 1 µg/mL. Moreover, the MIC in the series with Vibrio cholerae was 0.5 µg/mL.
With `O=C(O)c1cn(C2CC2)c2cc(N3CCNCC3)c(F)cc2c1=O` [Ciprofloxacin, reference compound], the MIC in the series with Pseudomonas aeruginosa (agar dilution) is 0.5 µg/mL (≈ 1.51 µM); in the series with Staphylococcus aureus (agar dilution), 0.5 to 1 µg/mL (≈ 1.51 to 3.02 µM); in the series with Escherichia coli (agar dilution), 0.0313 µg/mL (≈ 0.0945 µM); against Klebsiella pneumoniae, 0.0313 to 0.0625 µg/mL (≈ 0.0945 to 0.189 µM).
Take `C[C@@H]1Sc2c(C(=O)O)c(=O)c3cc(F)c(N4CCNCC4)cc3n21` [Compound 2, (S)-6-fluoro-1-methyl-4-oxo-7-(1-piperazinyl)-1H,4H-[1,3]thiazeto[3,2-a]quinoline-3-carboxylic acid]: the MIC in the series with Pseudomonas aeruginosa (agar dilution) worked out at 0.177 µg/mL (≈ 0.507 µM); in the series with Staphylococcus aureus (agar dilution), 0.177 µg/mL (≈ 0.507 µM); in the series on Streptococcus pneumoniae (agar dilution), 0.025 µg/mL (≈ 0.0716 µM); in the series on Escherichia coli (agar dilution), 0.0125 µg/mL (≈ 0.0358 µM); with Enterobacter cloacae (agar dilution), 0.5 µg/mL (≈ 1.43 µM). In addition, the “antibacterial activity relative to R-ulifloxacin” value in [2] was 3 to 10 times. The “antibacterial activity relative to racemic ulifloxacin” value in [2] was “two or more times”. Further, the “antibacterial activity (in words)” value in series [2] is listed as “relatively strong antibacterial activity”.
For `C[C@H]1Sc2c(C(=O)O)c(=O)c3cc(F)c(N4CCNCC4)cc3n21` [Compound 3, (R)-6-fluoro-1-methyl-4-oxo-7-(1-piperazinyl)-1H,4H-[1,3]thiazeto[3,2-a]quinoline-3-carboxylic acid], the MIC with Pseudomonas aeruginosa (agar dilution) was 2 µg/mL (≈ 5.72 µM); in the series with Staphylococcus aureus (agar dilution) it was 2.83 µg/mL (≈ 8.09 µM); with Streptococcus pneumoniae (agar dilution), 0.25 µg/mL (≈ 0.716 µM); with Escherichia coli (agar dilution) it was 0.225 µg/mL (≈ 0.644 µM); in the series on Enterobacter cloacae (agar dilution) it was 4 µg/mL (≈ 11.4 µM).
For the molecule `CS(=O)(=O)O.C[C@H]1Sc2c(C(=O)O)c(=O)c3cc(F)c(N4CCNCC4)cc3n21` [Compound 9, (R)-6-fluoro-1-methyl-4-oxo-7-(1-piperazinyl)-1H,4H-[1,3]thiazeto[3,2-a]quinoline-3-carboxylic acid mesylate], the solubility in series [1] (25 °C, water) came out at 501 mg/mL. Moreover, the minimum inhibitory concentration (MIC) in the series on Pseudomonas aeruginosa is 1 µg/mL; in the series with Staphylococcus aureus (agar dilution) it was 2 µg/mL; in the series with Enterococcus faecalis, 4 µg/mL; in the series on Streptococcus pneumoniae, 0.125 µg/mL; with Klebsiella pneumoniae it was 0.5 µg/mL; in the series with Enterobacter cloacae (agar dilution) it was 4 µg/mL. For the same molecule, the MIC in the series on Vibrio cholerae amounted to 2 µg/mL.
Consider `CC(O)C(=O)O.C[C@H]1Sc2c(C(=O)O)c(=O)c3cc(F)c(N4CCNCC4)cc3n21` [Compound 13, (R)-6-fluoro-1-methyl-4-oxo-7-(1-piperazinyl)-1H,4H-[1,3]thiazeto[3,2-a]quinoline-3-carboxylic acid lactate], for which, in [1] (setting [3]), the solubility is 116 mg/mL. Further, the MIC was determined as 1 µg/mL in the series with Pseudomonas aeruginosa; 1 µg/mL in the series on Staphylococcus aureus; 4 µg/mL in the series with Enterococcus faecalis (agar dilution); 0.125 µg/mL in the series with Streptococcus pneumoniae; 0.25 µg/mL in the series with Escherichia coli.
In the case of `C[C@H]1COc2c(N3CCN(C)CC3)c(F)cc3c(=O)c(C(=O)O)cn1c23` [Levofloxacin, reference compound], the minimal inhibitory concentration (MIC) was 2 µg/mL (≈ 5.53 µM) in the series on Pseudomonas aeruginosa (agar dilution), 0.5 µg/mL (≈ 1.38 µM) in the series with Staphylococcus aureus (agar dilution), 0.0313 µg/mL (≈ 0.0866 µM) in the series on Escherichia coli (agar dilution) and 0.0125 µg/mL (≈ 0.0346 µM) in the series with Klebsiella pneumoniae.
For “(R)-6-fluoro-1-methyl-4-oxo-7-(1-piperazinyl)-1H,4H-[1,3]thiazeto[3,2-a]quinoline-3-carboxylic acid aspartate [Compound 11]”, the entries for the “In-vitro MIC” value in the series with Pseudomonas aeruginosa (agar dilution), in the series with Staphylococcus aureus (agar dilution) and with Escherichia coli (agar dilution) were 1 µg/mL, 2 µg/mL and 0.25 µg/mL, respectively.
For the molecule “(R)-6-fluoro-1-methyl-4-oxo-7-(1-piperazinyl)-1H,4H-[1,3]thiazeto[3,2-a]quinoline-3-carboxylic acid gluconate [Compound 10]”, the “In-vitro MIC” value was determined as 1 µg/mL in the series on Pseudomonas aeruginosa (agar dilution); 1 µg/mL in the series with Staphylococcus aureus (agar dilution); 0.25 µg/mL in the series on Escherichia coli (agar dilution); 0.5 µg/mL in the series with Klebsiella pneumoniae; 2 µg/mL in the series on Vibrio cholerae.
Consider “(R)-6-fluoro-1-methyl-4-oxo-7-(1-piperazinyl)-1H,4H-[1,3]thiazeto[3,2-a]quinoline-3-carboxylic acid glutamate [Compound 12]”, for which the “In-vitro MIC” value with Staphylococcus aureus (agar dilution) amounted to 2 µg/mL; in the series with Streptococcus pneumoniae (agar dilution) it was 0.5 µg/mL; in the series with Escherichia coli (agar dilution) it was 0.5 µg/mL.
Take “(S)-6-fluoro-1-methyl-4-oxo-7-(1-piperazinyl)-1H,4H-[1,3]thiazeto[3,2-a]quinoline-3-carboxylic acid aspartate [Compound 7]”: the “In-vitro MIC” value came out at 0.25 µg/mL in the series on Pseudomonas aeruginosa (agar dilution), 0.25 µg/mL in the series on Staphylococcus aureus (agar dilution) and 0.02 µg/mL in the series on Escherichia coli (agar dilution). Also, the “antibacterial activity (in words)” value in [2] is reported as “relatively strong antibacterial activity”.
Turning to “(S)-6-fluoro-1-methyl-4-oxo-7-(1-piperazinyl)-1H,4H-[1,3]thiazeto[3,2-a]quinoline-3-carboxylic acid glutamate [Compound 8]”, the “In-vitro MIC” value turned out to be 0.25 µg/mL with Staphylococcus aureus (agar dilution), 0.125 µg/mL with Streptococcus pneumoniae (agar dilution) and 0.01 µg/mL in the series on Escherichia coli (agar dilution). For the same molecule, in series [2], the “antibacterial activity (in words)” value is “relatively strong antibacterial activity”.
Consider “(±)-6-fluoro-1-methyl-4-oxo-7-(1-piperazinyl)-1H,4H-[1,3]thiazeto[3,2-a]quino line-3-carboxylic acid aspartate [Ulifloxaci aspartate (±), reference compound]”, for which the “In-vitro MIC” value with Pseudomonas aeruginosa (agar dilution) was 0.5 µg/mL; in the series on Staphylococcus aureus (agar dilution), 0.5 µg/mL; in the series on Escherichia coli (agar dilution), 0.1 µg/mL.
As to “(±)-6-fluoro-1-methyl-4-oxo-7-(1-piperazinyl)-1H,4H-[1,3]thiazeto[3,2-a]quinoline-3-carboxylic acid gluconate [Ulifloxaci gluconate (±), reference compound]”, the “In-vitro MIC” value in the series on Pseudomonas aeruginosa (agar dilution) worked out at 0.5 µg/mL; in the series with Staphylococcus aureus (agar dilution), 0.5 µg/mL; in the series with Escherichia coli (agar dilution), 0.05 µg/mL; in the series on Klebsiella pneumoniae, 0.2 µg/mL; with Vibrio cholerae it was 0.5 µg/mL.
With “(±)-6-fluoro-1-methyl-4-oxo-7-(1-piperazinyl)-1H,4H-[1,3]thiazeto[3,2-a]quinoline-3-carboxylic acid glutamate [Ulifloxaci glutamate (±), reference compound]”, the “In-vitro MIC” value in the series with Staphylococcus aureus (agar dilution) was found to be 0.5 µg/mL; in the series with Streptococcus pneumoniae (agar dilution), 0.2 µg/mL; in the series on Escherichia coli (agar dilution), 0.125 µg/mL.

The values above are taken from US20110028444A1, “PHARMACEUTICALLY ACCEPTABLE SALTS OF ANTI-INFECTION QUINOLONE COMPOUNDS” (priority 2008, published 2011).
